According to patent publication US11766430B2, “Methods of using a phenoxypropylamine compound to treat pain” (Minerva Neurosciences, Inc., priority 2018, dated 2023):
Where “and” joins values, the source holds several entries; their conditions need not be identical. Identical values can stand only once.

Experiments:
[1] = test system: peripheral mononeuropathy (Bennett model) in rats; test: Peripheral mononeuropathy (Bennett model, chronic constriction injury), paw pressure test (Example 3); assay type: in vivo, male Sprague-Dawley rats; conditions: for paw withdrawal threshold, control paw, Mean: n = 10; for Nociceptive threshold, control paw (mean ± s.e.m.): T0 (14 days after surgery, before dosing)
Method: The model of Chronic Constriction Injury (CCI) is based on a discrete peripheral nerve injury and can be related to post-traumatic/postsurgical neuropathic pain experienced by patients (Bennett, G. J. and Xie, Y. K., A peripheral mononeuropathy in rat that produces disorders of pain sensation like those seen in man, Pain, 1988(33):87-107). Unilateral peripheral mononeuropathy was induced by loose ligation of the rat the sciatic nerve of the right hindpaw in anaesthetized rats (xylazine 10 mg/kg i.p., ketamine 60 mg/kg i.p.). The common sciatic nerve was exposed at the level of the middle of the thigh by blunt dissection through the biceps femoris. Proximal to the sciatic trifurcation, four ligatures were tied loosely around it with about 1 mm spacing. Great care was taken to tie the ligatures, such that the diameter of the nerve was seen to be just barely constricted.
Fourteen days later, static mechanical hyperalgesia is assessed using the Paw pressure test (Randall, L. O. and Selitto, J. J., A method for measurement of analgesic activity on inflamed tissue, Arch Int Pharmacodyn, 1957(111):409-419). This test requires the application of an increasing pressure on the hind paws between a flat surface and a blunt pointer. This test is usually used with animals with one hindpaw inflamed by an injection or injured by ligation, and one normal hindpaw, to evaluate drugs for analgesic action. The apparatus exerts a steadily increasing force and reaction threshold is determined as the pressure (g) required to elicit paw withdrawal and/or vocalization. Ugo Basile Analgesimeter (Ugo Basile, Italy) was used for the paw pressure test.
Fourteen days after surgery (D0), nociceptive reaction thresholds (vocalization or paw withdrawal) was measured in order to select animals meeting the inclusion criteria: 20 g<paw withdrawal threshold<240 g (baseline).
Fifty (50) male Sprague-Dawley rats (SPF status, Janvier, France), weighing 133-181 grams the day of surgery were used. Rats were housed in a temperature (20-24° C.) and relative humidity (45%-65%) controlled room and acclimated to an artificial day/night cycle of 12 hours light (6:30 a.m. to 6:30 p.m.)/12 hours darkness. Rats had free access to sterilized tap water and were fed ad libitum with pelleted complete diet (reference A04, S.A.F.E.). Animals were housed 4 per cage (cages Type E) and were acclimated for a period of at least 5 days before any testing. Each rat was identified by tail markings. Based on the SPF status of the animal facilities, there is no reason to expect that contaminants were present in the food, water or bedding, at levels capable of interfering with the results of the tests. […]
Vehicle and MIN-117 were intraperitoneally administered at 10 mL/kg. […] Dosing and testing were performed in a random order by a blinded experimenter except for the morphine-treated group.
Thirty minutes after morphine injection, the antihyperalgesic effect of morphine was evaluated using the paw pressure test. For vehicle and MIN-117 administration, the antihyperalgesic effect of the was evaluated after 120 min. using the paw pressure test.
Results were expressed as: • The paw withdrawal threshold (mean±s.e.m.) in grams of contact pressure for each group, calculated from individual paw withdrawal thresholds • The percentage of variation of the paw withdrawal threshold calculated from the mean value of the vehicle-treated group • The percentage of activity of the compound on mechanical hyperalgesia induced by the sciatic nerve ligation, calculated as follows: […]

[2] = Body weight, reversal study (Example 6); assay type: in vivo, Male Sprague Dawley rats; conditions: 1, 3 and 10 mg/kg i.p. once daily for 2 weeks; repeated measures ANOVA
Method: Body weight (BW) was measured daily during treatment and twice a week after cessation of dosing.
Data was analyzed by analysis of variance (ANOVA) followed by post-hoc comparisons where appropriate. An effect will be considered significant if p<0.05. Data was represented as the mean and standard error to the mean (s.e.m). Statistical outliers that fell above or below 2 standard deviations of the mean were identified but not removed from the final analysis.

[3] = Body weight during the chemotherapy induced neuropathic pain study (Example 5); assay type: in vivo, Male Sprague Dawley rats; conditions: paclitaxel days 1, 3, 5, 7; test compound on day 14; repeated measures ANOVA
Method: Male Sprague Dawley rats (from Envigo, Ind., USA) were used in the study. Animals were received at approximately 250 g and housed 3 per cage upon arrival. All rats were examined, handled, and weighed prior to initiation of the study to assure adequate health and suitability. During the course of the study, 12 h/12 h light/dark cycles was maintained. The room temperature was be maintained between 20 and 23° C. with a relative humidity maintained around 50%. Chow and water was provided ad libitum for the duration of the study. All testing was performed during the animal's light cycle phase. Every effort was made to minimize suffering of animals. Rats with baseline PWT less than 12 g were not included in the study. Rats were balanced by body weight and by their pre-paclitaxel PWT values. ANOVA found no significant differences between the treatment groups.

[4] = CCI rats, MIN-117 1 mg/kg IP group, Baseline (pre-treatment)
[5] = CCI rats, MIN-117 1 mg/kg IP, 120 min
[6] = CCI rats, MIN-117 1 mg/kg IP, 120 min after treatment, hydrochloride, 1 mg/kg
[7] = CCI rats, MIN-117 3 mg/kg IP group, Baseline (pre-treatment)
[8] = CCI rats, MIN-117 3 mg/kg IP, 120 min
[9] = CCI rats, MIN-117 3 mg/kg IP, 120 min after treatment, hydrochloride, 3 mg/kg
[10] = CCI rats, MIN-117 10 mg/kg IP group, Baseline (pre-treatment)
[11] = CCI rats, MIN-117 10 mg/kg IP, 120 min
[12] = CCI rats, MIN-117 10 mg/kg IP, 120 min after treatment, hydrochloride, 10 mg/kg
[13] = CCI, 1 mg/kg IP, T0 (before dosing)
[14] = CCI, 3 mg/kg IP, T0 (before dosing)
[15] = CCI, 10 mg/kg IP, T0 (before dosing)

Question: With `Cc1nnc(-c2cc3c(OC[C@@H](O)CN4CCC(c5ccc(Cl)c(Cl)c5)CC4)cccc3o2)o1.Cl` [MIN-117, (2S)-1-(4-(3,4-dichlorophenyl)piperidin-1-yl)-3-((2-(5-methyl-1,3,4-oxadiazol-2-yl)benzofuran-4-yl)oxy)propan-2-ol hydrochloride] as the compound, how does the “% variation vs control paw, injured paw” value [1, 4] read?
Answer: −54%

Question: And the “% variation vs vehicle treated group, injured paw” value [1, 4]?
Answer: −6%

Question: And the “paw withdrawal threshold, control paw, Mean” value [1, 4]?
Answer: 366 g

Question: And the “% activity on mechanical hyperalgesia, injured paw” value (from here on “% activity”) [1, 5]?
Answer: 9%

Question: And the “% variation vs control paw, injured paw” value [1, 5]?
Answer: −47%

Question: What about the “% variation vs pre-drug threshold, injured paw” value [1, 5] of the same compound?
Answer: 10%

Question: What about the “% variation vs vehicle treated group, injured paw” value [1, 5] of the same compound?
Answer: 11%

Question: And the “paw withdrawal threshold, control paw, individual rats” value [1, 6]?
Answer: 400 g (2×) and 300 g (2×) and 360 g and 320 g (4×) and 440 g

Question: And the “paw withdrawal threshold, injured paw, individual rats” value (shortened to “paw withdrawal threshold, injured paw”) [1, 6]?
Answer: 200 g (3×) and 180 g (3×) and 160 g (3×) and 220 g

Question: And the “paw withdrawal threshold, control paw, Mean” value ([1]; CCI rats, MIN-117 1 mg/kg IP, 120 min after treatment)?
Answer: 348 g

Question: What about the “% variation vs control paw, injured paw” value [1, 7] of the same compound?
Answer: −55%

Question: What about the “% variation vs vehicle treated group, injured paw” value [1, 7] of the same compound?
Answer: −8%

Question: And the “paw withdrawal threshold, control paw, Mean” value [1, 7]?
Answer: 364 g

Question: What about the “% activity” value [1, 8] of the same compound?
Answer: 29%

Question: What about the “% variation vs control paw, injured paw” value [1, 8] of the same compound?
Answer: −40%

Question: And the “% variation vs pre-drug threshold, injured paw” value [1, 8]?
Answer: 35%

Question: What about the “% variation vs vehicle treated group, injured paw” value [1, 8] of the same compound?
Answer: 34%

Question: What about the “paw withdrawal threshold, control paw, individual rats” value [1, 9] of the same compound?
Answer: 440 g and 420 g (2×) and 300 g and 360 g (2×) and 340 g (2×) and 460 g and 280 g

Question: And the “paw withdrawal threshold, injured paw” value [1, 9]?
Answer: 280 g and 220 g (2×) and 200 g (3×) and 180 g and 240 g (3×)

Question: And the “paw withdrawal threshold, control paw, Mean” value ([1]; CCI rats, MIN-117 3 mg/kg IP, 120 min after treatment)?
Answer: 372 g

Question: And the “% variation vs control paw, injured paw” value [1, 10]?
Answer: −55%

Question: What about the “% variation vs vehicle treated group, injured paw” value [1, 10] of the same compound?
Answer: −8%

Question: And the “paw withdrawal threshold, control paw, Mean” value [1, 10]?
Answer: 368 g

Question: What about the “% activity” value [1, 11] of the same compound?
Answer: 59%

Question: And the “% variation vs control paw, injured paw” value [1, 11]?
Answer: −33%

Question: And the “% variation vs pre-drug threshold, injured paw” value [1, 11]?
Answer: 71%

Question: What about the “% variation vs vehicle treated group, injured paw” value [1, 11] of the same compound?
Answer: 69%

Question: And the “paw withdrawal threshold, control paw, individual rats” value [1, 12]?
Answer: 600 g and 320 g and 440 g (4×) and 400 g and 280 g and 480 g and 360 g

Question: And the “paw withdrawal threshold, injured paw” value [1, 12]?
Answer: 440 g and 320 g (2×) and 260 g and 220 g and 240 g (4×) and 280 g

Question: And the “paw withdrawal threshold, control paw, Mean” value ([1]; CCI rats, MIN-117 10 mg/kg IP, 120 min after treatment)?
Answer: 420 g

Question: What about the “Nociceptive threshold, control paw (mean ± s.e.m.)” value (“Nociceptive threshold, control paw” for short) ([1]; CCI, 1 mg/kg IP) of the same compound?
Answer: 366 ± 16.1 g

Question: And the “% variation vs control paw, injured paw” value [1, 13]?
Answer: −54%

Question: And the “% variation vs vehicle-treated group, injured paw” value [1, 13]?
Answer: −6%

Question: What about the “Nociceptive threshold, injured paw (mean ± s.e.m.)” value (shortened to “Nociceptive threshold, injured paw”) [1, 13] of the same compound?
Answer: 168 ± 8.0 g

Question: And the “% variation vs control paw, injured paw” value ([1]; CCI, 1 mg/kg IP, T0 + 120 min)?
Answer: −47%

Question: What about the “% variation vs pre-drug threshold, injured paw” value ([1]; CCI, 1 mg/kg IP, T0 + 120 min) of the same compound?
Answer: 10%

Question: And the “% variation vs vehicle-treated group, injured paw” value ([1]; CCI, 1 mg/kg IP, T0 + 120 min)?
Answer: 11%

Question: What about the “Nociceptive threshold, injured paw” value ([1]; CCI, 1 mg/kg IP, T0 + 120 min) of the same compound?
Answer: 184 ± 6.5 g

Question: And the “Effect on nociceptive threshold vs vehicle-treated group (in words)” value (“Effect … vs vehicle-treated group (in words)” for short) ([1]; CCI, 1 mg/kg i.p., 120 min. after treatment)?
Answer: did not induce any significant increase

Question: And the “Nociceptive threshold, control paw” value ([1]; CCI, 3 mg/kg IP)?
Answer: 364 ± 9.8 g

Question: And the “% variation vs control paw, injured paw” value [1, 14]?
Answer: −55%

Question: And the “% variation vs vehicle-treated group, injured paw” value [1, 14]?
Answer: −8%

Question: And the “Nociceptive threshold, injured paw” value [1, 14]?
Answer: 164 ± 5.8 g

Question: What about the “% variation vs control paw, injured paw” value ([1]; CCI, 3 mg/kg IP, T0 + 120 min) of the same compound?
Answer: −40%

Question: And the “% variation vs pre-drug threshold, injured paw” value ([1]; CCI, 3 mg/kg IP, T0 + 120 min)?
Answer: 35%

Question: And the “% variation vs vehicle-treated group, injured paw” value ([1]; CCI, 3 mg/kg IP, T0 + 120 min)?
Answer: 34%

Question: What about the “Nociceptive threshold, injured paw” value ([1]; CCI, 3 mg/kg IP, T0 + 120 min, hydrochloride, 3 mg/kg) of the same compound?
Answer: 222 ± 9.2 g

Question: And the “Effect … vs vehicle-treated group (in words)” value ([1]; CCI, 3 mg/kg i.p., after 120 min.)?
Answer: significant increase

Question: What about the “Nociceptive threshold, control paw” value ([1]; CCI, 10 mg/kg IP) of the same compound?
Answer: 368 ± 16.9 g

Question: And the “% variation vs control paw, injured paw” value [1, 15]?
Answer: −55%

Question: And the “% variation vs vehicle-treated group, injured paw” value [1, 15]?
Answer: −8%

Question: What about the “Nociceptive threshold, injured paw” value [1, 15] of the same compound?
Answer: 164 ± 7.2 g

Question: And the “% variation vs control paw, injured paw” value ([1]; CCI, 10 mg/kg IP, T0 + 120 min)?
Answer: −33%

Question: And the “% variation vs pre-drug threshold, injured paw” value ([1]; CCI, 10 mg/kg IP, T0 + 120 min)?
Answer: 71%

Question: And the “% variation vs vehicle-treated group, injured paw” value ([1]; CCI, 10 mg/kg IP, T0 + 120 min)?
Answer: 69%

Question: What about the “Nociceptive threshold, injured paw” value ([1]; CCI, 10 mg/kg IP, T0 + 120 min, hydrochloride, 10 mg/kg) of the same compound?
Answer: 280 ± 20.9 g

Question: And the “Effect … vs vehicle-treated group (in words)” value ([1]; CCI, 10 mg/kg i.p., after 120 min.)?
Answer: significant increase

Question: What about the “Body weight during treatment compared to vehicle (in words)” value [2] of the same compound?
Answer: no significant treatment effect

Question: And the “Body weight during the study, between groups (in words)” value [3]?
Answer: no significant difference between groups
